ChEMBL document CHEMBL1201862, “PubChem BioAssay data set” (2004)
Activity calls are given as the source filed them.

Key:
[1] = Luminescence-based cell-based high throughput dose response assay to identify activators of the DAF-12 from the parasite S. stercoralis (ssDAF-12).; type: functional
Cytochrome P450 3A4 [2] = target: T1, Cytochrome P450 3A4 (Homo sapiens, UniProt P08684);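 also: CYP3A4 tested as one member of a cytochrome P450 panel screen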
[3] = target: T2, Oxysterols receptor LXR-beta (Homo sapiens, UniProt P55055); assay: LXR agonists, Gal4 luciferase reporter, dose response, counter-screen for ssDAF-12 agonist project, cell-based, luminescence, HEK293, S. stercoralis campaign (AID 720737); type: functional; conditions: read-out: IC50 (the source's name)
T2 sequence (P55055 whole entry): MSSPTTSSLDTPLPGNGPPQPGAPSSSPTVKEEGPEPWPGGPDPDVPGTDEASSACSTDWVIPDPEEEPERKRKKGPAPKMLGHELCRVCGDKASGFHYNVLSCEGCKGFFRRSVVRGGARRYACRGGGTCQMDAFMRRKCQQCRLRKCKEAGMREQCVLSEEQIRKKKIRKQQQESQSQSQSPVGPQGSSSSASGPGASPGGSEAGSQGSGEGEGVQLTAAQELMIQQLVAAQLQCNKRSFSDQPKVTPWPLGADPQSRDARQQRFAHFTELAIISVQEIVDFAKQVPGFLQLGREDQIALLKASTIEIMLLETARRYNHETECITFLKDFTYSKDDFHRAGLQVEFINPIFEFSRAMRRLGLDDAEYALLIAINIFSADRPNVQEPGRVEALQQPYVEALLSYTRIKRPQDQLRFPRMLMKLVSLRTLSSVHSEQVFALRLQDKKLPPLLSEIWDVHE

cells [4] = assay: cells
Cytochrome P450 2D6 = Cytochrome P450 2D6 (Homo sapiens, UniProt P10635);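 also: CYP2D6 member of a cytochrome P450 panel assay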
Chain of Cytochrome P450 2D6 (P10635 whole entry): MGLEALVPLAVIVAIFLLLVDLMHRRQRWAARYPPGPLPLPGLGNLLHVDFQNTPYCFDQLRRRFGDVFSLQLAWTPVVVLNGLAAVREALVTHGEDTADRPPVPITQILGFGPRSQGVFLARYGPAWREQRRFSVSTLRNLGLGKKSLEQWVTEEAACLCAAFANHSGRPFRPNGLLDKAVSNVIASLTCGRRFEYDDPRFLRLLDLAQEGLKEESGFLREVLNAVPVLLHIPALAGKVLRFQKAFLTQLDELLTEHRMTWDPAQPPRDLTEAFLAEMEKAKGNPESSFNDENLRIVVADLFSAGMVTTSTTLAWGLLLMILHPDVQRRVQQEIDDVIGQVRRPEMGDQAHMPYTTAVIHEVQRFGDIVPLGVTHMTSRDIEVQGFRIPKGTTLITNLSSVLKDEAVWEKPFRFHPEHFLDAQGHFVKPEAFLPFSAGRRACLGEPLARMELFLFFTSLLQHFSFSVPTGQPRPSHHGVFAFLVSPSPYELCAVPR

[5] = target: T2, Oxysterols receptor LXR-beta; type: functional, cell-based
cells [6] = assay: cells; remark: listed apart in the source
Cytochrome P450 3A4 [7] = target: T1, Cytochrome P450 3A4; remark: listed apart in the source
[8] = Luminescence Cell-Based Dose Response HTS to Identify Activators of Luciferase Translation or Activity in H4 […] Cells. [Related pubchem assays: 1829 (Project Summary), 1814 (Primary HTS)]; type: functional
[9] = general mammalian cell viability loss – activator set, cherry-pick, cytotoxicity control for miR-122 modulator project, dose response (AID 720690); type: functional, cell-based;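 also: HEK293T human cells scored for general mammalian cytotoxicity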
[10] = general mammalian cell viability loss – inhibitor set, cherry-pick, set 2, cytotoxicity control for miR-122 modulator project, dose response (AID 720697); type: functional, cell-based
[11] = activation of miR-122 Renilla sensor silencing – cell-based, Huh7 psiCHECK-miR122, Renilla luciferase, cherry-picked, dose response (AID 651956); type: functional;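 also: huh7 hepatoma cells stably carrying a psiCHECK-2 miR-122 sensor plasmid; renilla luciferase signal reporting endogenous miR-122 activity after 48 h compound exposure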
H4 = assay: Luminescence Cell-Based Dose Response HTS to Identify Activators of 5'UTR Stem-Loop Driven Prion Protein mRNA Translation in H4 Neuroglioblastoma Cells. [Related pubchem assays: 1829 (Project Summary), 1814 (Primary HTS)]; type: functional; conditions: Homo sapiens
[12] = Luminescence Cell-Based Dose Response to Identify Activators of 5'UTR Stem-Loop Driven Prion Protein mRNA Translation in H4-C Neuroglioblastoma Cells. [Related pubchem assays: 1829 (Project Summary), 1814 (Primary HTS)]; type: functional
[13] = Luminescence Cell-Based Dose Confirmation HTS to Identify Activators of 5'UTR Stem-Loop Driven Alpha-Synuclein mRNA Translation in H4 Neuroglioblastoma Cells. [Related pubchem assays: 1829 (Project Summary), 1814 (Primary HTS)]; type: functional
[14] = Luminescence Cell-Based Dose Confirmation to Identify Activators of 5'UTR Stem-Loop Driven Alpha-Synuclein mRNA Translation in H4 Neuroglioblastoma Cells. [Related pubchem assays: 1829 (Project Summary), 1814 (Primary HTS)]; type: functional
[15] = Luminescence Cell-Based Dose Response to Identify Activators of Luciferase Translation or Activity in H4-C Neuroglioblastoma Cells. [Related pubchem assays: 1829 (Project Summary), 1814 (Primary HTS)]; type: functional
[16] = viability loss in HepG2 liver cells – cell-based, ATP luminescence, cherry-pick, set 6, cytotoxicity control, dose response (AID 1053125); type: functional
cells [17] = conditions: A549
[18] = Luminescence Cell-Based Dose Retest to Confirm Inhibitors of Cancer Stem Cells. [Related pubchem assays (depositor defined):AID2717, AID2721]; type: functional; conditions: Homo sapiens
cells [19] = conditions: HEK293;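 also: cells exposed to compound for 48 hours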
[20] = target: Heat shock protein HSP 90-alpha (Homo sapiens, UniProt P07900); type: functional, organism-based
[21] = target: T2, Oxysterols receptor LXR-beta; type: functional, cell-based; remark: listed apart in the source
[22] = HEK293 Cytotoxicity Assay Measured in Cell-Based System Using Plate Reader - 7071-01_Inhibitor_Dose_CherryPick_Activity_Set2.; type: functional
HEK293 = assay: viability loss in HEK293T cells – cell-based, ATP luminescence, cherry-pick samples, cytotoxicity control, dose response (AID 687005); type: functional; conditions: Homo sapiens;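 also: cells exposed to compound for 48 hours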
[23] = Dd2 malaria parasite growth inhibition potency – SYBR Green, dry powder samples, dose response (AID 1159566); type: functional, cell-based;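 also: potency for growth inhibition with lower SYBR green DNA signal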
[24] = A549 cell cytotoxicity, dose response, cytotoxicity control, plate reader, cherry-pick, antagonist series (AID 743412); type: functional, cell-based
[25] = OVCAR-3 cell viability loss – plate reader, dry powder samples, PAX8 inhibitor project, dose response (AID 743044); type: functional, cell-based
[26] = growth inhibition of PfATP4-mutant resistant parasites – NITD609-resistant line, SYBR Green, dry powder, dose response (AID 1159571); type: functional, cell-based;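 also: parasites synchronized at ring stage by sorbitol before testing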
[27] = A2780 cell killing – plate reader, dry powder samples, cytotoxicity control, dose response (AID 743046); type: functional, cell-based
[28] = IGROV1 cell killing – plate reader, dry powder samples, PAX8 inhibitor project, dose response (AID 743043); type: functional, cell-based; conditions: IGROV-1
Paired box protein Pax-8 = Paired box protein Pax-8 (Homo sapiens, UniProt Q06710); assay: PAX8 transcriptional activity inhibition in RMG-I – RMG-I cells, luciferase, cherry-pick, dose response (AID 687027); type: functional, cell-based;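 also: luciferase reporter driven by Pax8 target thyroperoxidase promoter measured by SteadyGlo luminescence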
Chain of Paired box protein Pax-8 (Q06710 whole entry): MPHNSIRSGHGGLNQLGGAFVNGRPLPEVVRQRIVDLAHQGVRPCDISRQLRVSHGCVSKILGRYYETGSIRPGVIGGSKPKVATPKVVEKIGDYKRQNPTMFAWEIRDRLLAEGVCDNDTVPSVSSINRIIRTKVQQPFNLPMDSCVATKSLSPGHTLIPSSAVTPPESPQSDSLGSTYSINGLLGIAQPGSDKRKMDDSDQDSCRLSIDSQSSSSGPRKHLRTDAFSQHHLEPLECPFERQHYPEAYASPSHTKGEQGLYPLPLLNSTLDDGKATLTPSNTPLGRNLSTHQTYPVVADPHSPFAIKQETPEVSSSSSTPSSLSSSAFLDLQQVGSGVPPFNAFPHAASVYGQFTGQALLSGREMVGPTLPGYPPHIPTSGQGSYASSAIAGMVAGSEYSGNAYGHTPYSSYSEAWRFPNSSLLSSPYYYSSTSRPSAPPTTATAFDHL

[29] = viability loss in HEK293 cells – cell-based, plate reader, cherry-picked samples, cytotoxicity control, dose response (AID 743446); type: functional
[30] = toxicity to human HepG2 hepatoma cells – cell-based, plate reader, dry powder samples, cytotoxicity control, dose response (AID 1159569); type: functional;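 also: inhibitor potency with signal falling toward the positive control level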
[31] = blockade of melanocortin 4 receptor signaling – cell-based, plate reader, cherry pick, counter-screen for LGR2 antagonist project, dose response (AID 743444); type: functional;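 also: transfected HEK 293 cells stimulated with alpha-MSH peptide; potency of inhibitors of the alpha-MSH evoked signal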
[32] = toxicity toward HepG2 liver cells – cell-based, plate reader, cherry-pick, antagonist series, cytotoxicity control, dose response (AID 743416); type: functional
[33] = OVCAR8 cell viability loss – plate reader, dry powder samples, PAX8 project, dose response (AID 743197); type: functional, cell-based; conditions: OVCAR-8
[34] = blockers of bursicon-stimulated LGR2 cAMP reporter – cell-based, HEK293, CRE-luciferase reporter, cherry pick, set 2, dose response (AID 743343); type: functional;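 also: transfected cells were stimulated with diluted bursicon conditioned medium after compound addition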
[35] = growth inhibition of yeast DHODH-expressing 3D7 parasites – SYBR Green, dry powder samples, dose response (AID 1159570); type: functional, cell-based;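 also: parasite growth measured after 72 hours of compound exposure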
[36] = P. falciparum Dd2 growth inhibitors, dose response, SYBR Green, cherry-picked samples (AID 1159567); type: functional, cell-based
[37] = toxicity toward immortalized ovarian surface epithelium – cell-based, plate reader, dry powder samples, cytotoxicity control for PAX8 inhibitor project, dose response (AID 743045); type: functional
[38] = HIV-1 AD8 envelope cell-cell fusion blockers – cherry-pick, dose response (AID 652062); type: functional, cell-based;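 also: luciferase signal from cell-cell fusion driven by HIV-1 clade B AD8 Env; potency is for inhibitors of fusion seen as a drop in luminescence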
[39] = inhibition of Env-driven cell fusion – HIV entry, plate reader, dry powder, dose response (AID 687023); type: functional, cell-based
[40] = blockers of HIV-1 envelope-mediated cell-cell fusion – cherry-pick, dose response (AID 652057); type: functional, cell-based
[41] = blockers of HIV-1 ZM109 envelope-driven cell-cell fusion – HeLa effector, CEM target cells, luciferase, cherry-pick, dose response (AID 652058); type: functional, cell-based;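 also: luciferase signal from HIV-1 Env mediated cell-cell fusion of effector and target cells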
[42] = target: Potassium channel subfamily K member 3 (Homo sapiens, UniProt O14649); assay: inhibition of human KCNK3 channel flux – CHO cells, FluxOR thallium flux, SAR follow-up (AID 652212); type: functional
Chain of Potassium channel subfamily K member 3 (O14649 whole entry): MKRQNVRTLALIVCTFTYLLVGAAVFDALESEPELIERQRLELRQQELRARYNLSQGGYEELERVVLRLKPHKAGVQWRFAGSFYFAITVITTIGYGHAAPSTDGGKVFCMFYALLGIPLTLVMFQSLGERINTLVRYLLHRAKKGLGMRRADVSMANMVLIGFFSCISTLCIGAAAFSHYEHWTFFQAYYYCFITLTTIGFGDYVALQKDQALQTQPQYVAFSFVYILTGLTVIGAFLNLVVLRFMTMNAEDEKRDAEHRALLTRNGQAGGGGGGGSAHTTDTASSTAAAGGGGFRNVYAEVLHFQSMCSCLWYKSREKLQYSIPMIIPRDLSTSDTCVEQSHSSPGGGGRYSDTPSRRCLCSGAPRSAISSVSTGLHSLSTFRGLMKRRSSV

[43] = human cervical cancer cell viability loss – 24 h, plate reader, dry powder, cytotoxicity control, dose response (AID 686928); type: functional, cell-based; conditions: HeLa
[44] = viability loss in A549 lung cancer cells – cell-based, CellTiter-Glo luminescence, dry powder, set 3, cytotoxicity control, dose response (AID 743146); type: functional
[45] = HEK293T viability loss – cell-based, ATP luminescence, dry powder, Set6, cytotoxicity control, dose response (AID 743142); type: functional; conditions: HEK293
[46] = MITF Orthogonal Assay: SK-MEL-5 CTG Assay Measured in Cell-Based System Using Plate Reader - 2084-02_Inhibitor_Dose_DryPowder_Activity_Set7.; type: functional
[47] = MITF: Counter assay: A375 proliferation Measured in Cell-Based System Using Plate Reader - 2084-03_Inhibitor_Dose_DryPowder_Activity_Set8.; type: functional; conditions: A-375
[48] = inhibitors of TRPM1-promoter reporter in SK-MEL-5 – cell-based, luciferase, dry powder, set 8, MITF inhibitor project, dose response (AID 624430); type: functional
[49] = target: Metabotropic glutamate receptor 3 (Rattus norvegicus, UniProt P31422); assay: inhibition of rat mGlu3 glutamate signaling – HEK/GIRK cells, thallium flux, dose response (AID 651839); type: functional
Chain of Metabotropic glutamate receptor 3 (P31422 whole entry): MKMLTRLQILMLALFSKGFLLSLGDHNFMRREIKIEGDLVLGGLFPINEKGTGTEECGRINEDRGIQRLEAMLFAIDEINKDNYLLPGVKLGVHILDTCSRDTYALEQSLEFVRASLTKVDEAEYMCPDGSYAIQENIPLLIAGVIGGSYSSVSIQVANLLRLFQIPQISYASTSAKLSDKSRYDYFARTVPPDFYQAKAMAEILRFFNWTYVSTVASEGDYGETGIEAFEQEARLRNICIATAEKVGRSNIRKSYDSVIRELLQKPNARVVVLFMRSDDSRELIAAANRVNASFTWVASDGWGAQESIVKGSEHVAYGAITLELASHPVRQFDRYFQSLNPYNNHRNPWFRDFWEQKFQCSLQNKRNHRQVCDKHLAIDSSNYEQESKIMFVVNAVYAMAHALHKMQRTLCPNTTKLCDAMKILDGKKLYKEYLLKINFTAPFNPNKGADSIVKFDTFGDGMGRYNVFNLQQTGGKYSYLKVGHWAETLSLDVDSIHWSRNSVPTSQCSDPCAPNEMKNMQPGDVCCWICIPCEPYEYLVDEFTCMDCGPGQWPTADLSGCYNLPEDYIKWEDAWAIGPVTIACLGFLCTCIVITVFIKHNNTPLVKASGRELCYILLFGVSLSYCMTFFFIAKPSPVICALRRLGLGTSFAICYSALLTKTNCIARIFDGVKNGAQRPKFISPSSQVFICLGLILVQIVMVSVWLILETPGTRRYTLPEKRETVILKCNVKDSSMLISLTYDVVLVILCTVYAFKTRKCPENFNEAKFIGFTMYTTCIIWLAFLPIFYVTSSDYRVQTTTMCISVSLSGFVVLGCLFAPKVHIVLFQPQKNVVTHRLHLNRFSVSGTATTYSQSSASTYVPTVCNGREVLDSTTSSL

[50] = Late stage results for the probe development effort to identify inhibitors of Plasmodium falciparum gametocytes: Luminescence-based cell-based high throughput dose response assay to identify inhibitors of viability of late stage Plasmodium falciparum gametocytes.; type: functional
[51] = M. tuberculosis growth inhibition, HTS (AID 449762); type: functional
NS3 = NS3 (Hepatitis C virus, UniProt A3EZJ3); assay: NS3h DNA-binding inhibition IC50 – biochemical, fluorescence polarization, ChemBridge library, dose response (AID 743264)
Chain of NS3 (A3EZJ3 whole entry): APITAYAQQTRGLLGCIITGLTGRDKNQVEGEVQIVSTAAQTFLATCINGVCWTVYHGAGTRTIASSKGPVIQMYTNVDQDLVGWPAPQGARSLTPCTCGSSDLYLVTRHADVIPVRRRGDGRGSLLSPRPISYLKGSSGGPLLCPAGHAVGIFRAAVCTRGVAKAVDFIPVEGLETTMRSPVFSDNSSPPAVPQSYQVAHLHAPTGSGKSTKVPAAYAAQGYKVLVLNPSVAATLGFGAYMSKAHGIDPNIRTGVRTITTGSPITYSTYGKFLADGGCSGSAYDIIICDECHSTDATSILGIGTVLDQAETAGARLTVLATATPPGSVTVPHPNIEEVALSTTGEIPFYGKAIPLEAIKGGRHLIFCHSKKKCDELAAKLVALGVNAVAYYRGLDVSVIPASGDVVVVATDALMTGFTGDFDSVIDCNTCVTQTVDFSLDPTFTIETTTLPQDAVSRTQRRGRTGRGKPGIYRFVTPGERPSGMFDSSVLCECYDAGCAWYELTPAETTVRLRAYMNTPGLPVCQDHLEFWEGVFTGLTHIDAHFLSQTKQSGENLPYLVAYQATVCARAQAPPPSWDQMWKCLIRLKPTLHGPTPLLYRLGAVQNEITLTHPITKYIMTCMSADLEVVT

Cytochrome P450 2C9 = Cytochrome P450 2C9 (Homo sapiens, UniProt P11712)
Chain of Cytochrome P450 2C9 (P11712 whole entry): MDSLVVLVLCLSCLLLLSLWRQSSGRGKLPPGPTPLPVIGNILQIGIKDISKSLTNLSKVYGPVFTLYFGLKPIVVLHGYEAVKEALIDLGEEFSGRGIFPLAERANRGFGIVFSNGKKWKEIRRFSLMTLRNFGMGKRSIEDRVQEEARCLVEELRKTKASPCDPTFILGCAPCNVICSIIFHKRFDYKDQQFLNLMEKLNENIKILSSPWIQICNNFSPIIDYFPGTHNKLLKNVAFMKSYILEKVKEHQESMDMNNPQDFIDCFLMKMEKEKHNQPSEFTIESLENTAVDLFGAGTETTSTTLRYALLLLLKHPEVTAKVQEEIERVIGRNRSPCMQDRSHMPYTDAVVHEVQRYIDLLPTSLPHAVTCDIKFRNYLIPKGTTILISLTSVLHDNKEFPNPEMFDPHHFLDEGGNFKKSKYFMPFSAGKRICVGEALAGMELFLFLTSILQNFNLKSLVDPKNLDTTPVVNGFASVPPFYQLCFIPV

T1 sequence (P08684 whole entry, the tested form may be a part): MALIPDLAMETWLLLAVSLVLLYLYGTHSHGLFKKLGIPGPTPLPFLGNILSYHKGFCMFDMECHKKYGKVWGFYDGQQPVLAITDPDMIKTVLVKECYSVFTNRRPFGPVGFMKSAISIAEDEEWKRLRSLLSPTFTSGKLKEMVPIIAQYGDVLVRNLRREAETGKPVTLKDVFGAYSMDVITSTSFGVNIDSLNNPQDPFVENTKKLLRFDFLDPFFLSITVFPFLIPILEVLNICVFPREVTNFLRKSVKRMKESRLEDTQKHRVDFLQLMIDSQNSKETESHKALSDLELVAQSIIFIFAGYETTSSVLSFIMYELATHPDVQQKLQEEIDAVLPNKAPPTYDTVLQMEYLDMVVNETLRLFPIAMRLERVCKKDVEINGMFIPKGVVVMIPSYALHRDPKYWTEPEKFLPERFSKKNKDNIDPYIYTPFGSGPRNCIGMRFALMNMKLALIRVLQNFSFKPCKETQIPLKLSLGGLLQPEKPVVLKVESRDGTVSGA

SMILES: Cc1ccccc1-c1cc(-c2ccccc2O)on1
- IC50 [1]: > 67.6 µM (inactive)
- AC50 (Cytochrome P450 3A4 [2]): 31.6 µM (inconclusive)
- EC50 [3]: > 67.6 µM (inactive)
- EC50 (cells [4]): > 67.6 µM (inactive)
- AC50 (Cytochrome P450 2D6): 22.4 µM (inconclusive)
- EC50 [5]: > 67.6 µM (inactive)

SMILES: COc1cc(C(=O)NCCCNc2nc3c(C)cc(C)cc3cc2C#N)cc(OC)c1OC
- AC50 (cells [6]): 4.79 µM (active)

SMILES: CCOC(=O)c1cc2c(C)n(-c3ccc(C)cc3)c(C)c2ccc1=O
- AC50 (Cytochrome P450 3A4 [7]): inconclusive
- EC50 [8]: < 0.1 µM (active)
- AC50 [9]: 3.93 µM (active)
- AC50 [10]: 7.08 µM (active)
- AC50 [11]: 1.46 µM (active)
- EC50 (H4): < 0.1 µM (active)
- EC50 [12]: 0.333 µM (active)
- EC50 [13]: 0.1 µM (active)
- EC50 [14]: 0.262 µM (active)
- EC50 [15]: 0.376 µM (active)

SMILES: CCCCCCc1cc2cc(S(=O)(=O)c3ccc(Cl)cc3)c(=O)oc2cc1O
- AC50 [16]: 41.4 µM (active)
- AC50 (cells [17]): 35.6 µM (active)
- AC50 [18]: 0.797 µM (active)
- AC50 (cells [19]): > 52 µM (inactive)
- AC50 [20]: 0.476 µM (active)

SMILES: Cc1ccc(N/C=C(/C#N)c2ccsc2)cc1C
- EC50 [21]: > 67.5 µM (inactive)

SMILES: COc1ccccc1-c1ccc([C@H]2[C@H](C#N)N(C(=O)C3CC3)[C@H]2CO)cc1
- AC50 [22]: 24.8 µM (active)
- AC50 (HEK293): 24.8 µM (active)

SMILES: N#Cc1cccc(-c2ccc([C@@H]3[C@@H]4CN(C(=O)C5CC5)C[C@H]3N4)cc2)c1
- AC50 [23]: 0.267 µM (active)
- AC50 [24]: 1.97 µM (active)
- AC50 [25]: 12.2 µM (active)
- AC50 [26]: 0.455 µM (active)
- AC50 [27]: 9.05 µM (active)
- AC50 [28]: 7.63 µM (active)
- AC50 (Paired box protein Pax-8): 1.25 µM (active)
- AC50 [29]: 13.1 µM (active)
- AC50 [30]: 2.84 µM (active)
- AC50 [31]: 2.49 µM (active)
- AC50 [32]: 5.88 µM (active)
- AC50 [33]: 4.43 µM (active)
- AC50 [34]: 2.62 µM (active)
- AC50 [35]: 0.405 µM (active)
- AC50 [36]: 0.489 µM (active)
- AC50 [37]: 68.8 µM (active)

SMILES: Cc1noc(C)c1S(=O)(=O)N(C)C[C@@H]1Oc2ccc(NC(=O)Nc3ccccc3)cc2CC(=O)N([C@@H](C)CO)C[C@@H]1C
- AC50 [38]: 36.9 µM (active)
- AC50 [39]: 14.2 µM (active)
- AC50 [40]: 19.7 µM (active)
- AC50 [41]: 15.2 µM (active)

SMILES: CCOc1ccccc1NC(=O)c1cccc(C(=O)NC2CCCC2)c1
- IC50 [42]: 0.342 µM (active)

SMILES: O=C(Nc1nnc(C2CCCC2)o1)C1CCCCC1
- AC50 [43]: 165 µM (active)

SMILES: O=C(CCNC(=O)c1ccc(C(F)(F)F)cc1)N[C@@H]1CCCc2ccccc21
- AC50 [44]: 26 µM (active)
- AC50 [45]: 7.54 µM (active)

SMILES: COc1ccc(NC2=C(N3CCN(C(C)C)CC3)C(=O)c3ccccc3C2=O)cc1
- AC50 [46]: 16.6 µM (active)
- AC50 [47]: 45 µM (active)
- AC50 [48]: 3.28 µM (active)

SMILES: COc1ccc(-c2ccc3cc(C(=O)N4CCCC(CO)C4)ccc3c2)cn1 (configuration not stated)
- IC50 [49]: 6.77 µM (active)

SMILES: O=C(Nc1nccs1)c1cn(-c2ccccc2)nc1-c1ccc(Cl)cc1
- IC50 [50]: > 37.2 µM (inactive)

SMILES: O=C(O)Cc1c[nH]c2ccc(O)cc12
- IC50 [51]: > 100 µM (active)
- IC50 (NS3): 69.3 µM (active)
- AC50 (Cytochrome P450 2C9): inconclusive
